Reference: patent US10233186B2, “Inhibitors of activin receptor-like kinase” (BLUEPRINT MEDICINES CORPORATION, priority 2016, dated 2019)

Tests used:
[1] = target: T1, ALK2 R206H (GST-tagged mutant ALK2) (Homo sapiens, UniProt Q04771, R206H); assay: ALK binding assay (LANTHASCREEN TR-FRET competitive binding, displacement of Kinase Tracer 178); details: ALK2 R206H, LANTHASCREEN TR-FRET competitive binding; read-out: Binding Assay (IC50)
T1 construct: purchased Carna Bioscience or ThermoFisher 09-148 or PV6232
T1 sequence (Q04771 21-509 R206H): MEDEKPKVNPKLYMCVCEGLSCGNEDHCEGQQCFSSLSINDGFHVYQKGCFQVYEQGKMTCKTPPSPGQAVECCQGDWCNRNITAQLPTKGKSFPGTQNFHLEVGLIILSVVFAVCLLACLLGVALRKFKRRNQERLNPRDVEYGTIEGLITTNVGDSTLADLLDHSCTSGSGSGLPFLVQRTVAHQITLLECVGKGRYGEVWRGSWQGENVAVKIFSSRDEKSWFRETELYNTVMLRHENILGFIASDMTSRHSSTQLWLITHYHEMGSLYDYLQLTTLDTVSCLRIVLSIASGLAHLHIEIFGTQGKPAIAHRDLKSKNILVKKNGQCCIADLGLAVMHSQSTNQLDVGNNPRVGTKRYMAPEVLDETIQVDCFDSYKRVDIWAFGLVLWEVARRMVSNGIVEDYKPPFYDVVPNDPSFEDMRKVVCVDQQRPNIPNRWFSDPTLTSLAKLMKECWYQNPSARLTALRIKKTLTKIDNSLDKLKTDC

human ALK2 R206H = target: T2, human ALK2 R206H (Homo sapiens, UniProt Q04771, R206H); assay: Cell-based ALK2-R206H cell activity assay (Smad1-Ser463/Ser465 phosphorylation by AlphaLISA in HEK293-ALK2-R206H cells); details: read-out: Cell Line (Cell Assay IC50)
T2 construct: expressed in transfected cells; host or cells: HEK293 (ATCC CRL1573), lentivirus transduction, blasticidin selection
T2 sequence (Q04771 21-509 R206H): T1 sequence (Q04771 21-509 R206H)
Procedure, shortened: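 Stable HEK293 cells expressing C-terminally FLAG-tagged human ALK2 R206H (lentiviral, blasticidin-selected) were treated with compounds in 10-point, 3-fold dilutions from 10 μM or 1 μM top, in duplicate. Smad1 Ser463/Ser465 phosphorylation was read by AlphaLISA.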

Structure (SMILES)	IC50 [1] [nM]	IC50 (human ALK2 R206H) [nM]
CC(C)N1CCC(c2ccc(-c3cc4c(N5CCN(C(=O)C6CC6)CC5)ccnn4c3)cc2)(C(F)(F)F)CC1 [Compound 727]	< 10	< 100
COC1(c2ccc(-c3cc4c(N5CCN(C(=O)[C@H]6C[C@H](C#N)C6)CC5)ccnn4c3)cc2)CCN(C(C)C)CC1 [Compound 728]	< 10	< 100
COC1(c2ccc(-c3cc4c(N5CCN(C(=O)C6CCC(C#N)CC6)CC5)ccnn4c3)cc2)CN(C(C)C)C1 (stereo not drawn) [Compound 729]	< 10	< 100
COC1(c2ccc(-c3cc4c(N5CCN(C(=O)[C@H]6C[C@H](C#N)C6)CC5)ccnn4c3)nc2)CCN(C(C)C)CC1 [Compound 731]	< 10	< 100
CC(C)(C)OC(=O)N1CCC(N)(c2ccc(-c3cc4c(N5CCN(C(=O)C6CC6)CC5)ccnn4c3)cc2)CC1 [Compound 732]	< 10	100 to 500
COC1(c2ccc(-c3cc4c(N5CCN(C(=O)OC6COC6)CC5)ccnn4c3)nc2)CCN(C2COC2)CC1 [Compound 733]	< 10	< 100
CCOC1(c2ccc(-c3cc4c(N5CCN(C(=O)OC6COC6)CC5)ccnn4c3)nc2)CCN(C(C)C)CC1 [Compound 734]	< 10	< 100
COC[C@@H](C)N1CCC(OC)(c2ccc(-c3cc4c(N5CCN(C(=O)NC(C)C)CC5)ccnn4c3)nc2)CC1 [Compound 735]	< 10	< 100
COC[C@H](C)N1CCC(OC)(c2ccc(-c3cc4c(N5CCN(C(=O)NC(C)C)CC5)ccnn4c3)nc2)CC1 [Compound 736]	< 10	< 100
COC1(c2ccc(-c3cc4c(N5CCN(C(=O)OC6COC6)CC5)ccnn4c3)c(F)c2)CCN(C(C)C)CC1 [Compound 737]	< 10	< 100
CC(C)NC(=O)N1CCN(c2ccnn3cc(-c4ccc(C5(C(F)(F)F)CCN(C(C)C)CC5)cc4)cc23)CC1 [Compound 738]	< 10	< 100
COC1(c2ccc(-c3cc4c(N5CCN(C(=O)[C@H]6C[C@H](C#N)C6)CC5)ccnn4c3)cc2)CCN([C@H](C)CO)CC1 [Compound 739]	< 10	< 100
COC1(c2ccc(-c3cc4c(N5CCN(C(=O)[C@H]6C[C@H](C#N)C6)CC5)ccnn4c3)cc2)CCN([C@@H](C)CO)CC1 [Compound 740]	< 10	< 100
COC1(c2ccc(-c3cc4c(N5CCN(C(=O)[C@H]6C[C@H](C#N)C6)CC5)ccnn4c3)nc2)CCN([C@@H](C)CO)CC1 [Compound 741]	< 10	< 100
COC[C@H](C)N1CCC(OC)(c2ccc(-c3cc4c(N5CCN(C(=O)OC6COC6)CC5)ccnn4c3)nc2)CC1 [Compound 743]	< 10	< 100
COC[C@@H](C)N1CCC(OC)(c2ccc(-c3cc4c(N5CCN(C(=O)OC6COC6)CC5)ccnn4c3)nc2)CC1 [Compound 744]	< 10	< 100
COC[C@H](C)N1CCC(OC)(c2ccc(-c3cc4c(N5CCN(C(=O)[C@H]6C[C@H](C#N)C6)CC5)ccnn4c3)cc2)CC1 [Compound 745]	< 10	< 100
COC[C@@H](C)N1CCC(OC)(c2ccc(-c3cc4c(N5CCN(C(=O)[C@H]6C[C@H](C#N)C6)CC5)ccnn4c3)cc2)CC1 [Compound 746]	< 10	< 100
CC(C)N1CCC(c2ccc(-c3cc4c(N5CCN(C(=O)OC6COC6)CC5)ccnn4c3)cc2)(C(F)(F)F)CC1 [Compound 747]	< 10	< 100
COC[C@H](C)N1CCC(OC)(c2ccc(-c3cc4c(N5CCN(C(=O)[C@H]6C[C@H](C#N)C6)CC5)ccnn4c3)nc2)CC1 [Compound 748]	< 10	< 100
COC[C@@H](C)N1CCC(OC)(c2ccc(-c3cc4c(N5CCN(C(=O)[C@H]6C[C@H](C#N)C6)CC5)ccnn4c3)nc2)CC1 [Compound 749]	< 10	< 100
COC1(c2ccc(-c3cc4c(N5CCN(C(=O)NC(C)C)CC5)ccnn4c3)nc2)CCN([C@H](C)COC(F)F)CC1 [Compound 750]	< 10	< 100
N[C@H](CO)c1ccc(-c2cc3c(N4CCN(C(=O)C5CC5)CC4)ccnn3c2)cc1 [Compound 752]	< 10	100 to 500

Structure (SMILES)	IC50 [1] [nM]	IC50 (human ALK2 R206H) [nM]
N[C@@H](CO)c1ccc(-c2cc3c(N4CCN(C(=O)C5CC5)CC4)ccnn3c2)cc1 [Compound 753]	< 10	< 100
CCOC(=O)N1CCN(c2ccnn3cc(-c4ccc([C@@H](N)CO)cc4)cc23)CC1 [Compound 754]	< 10	< 100
NC1(c2ccc(-c3cc4c(N5CCN(C(=O)C6CC6)CC5)ccnn4c3)cc2)COC1 [Compound 755]	< 10	100 to 500
O=C(C1CC1)N1CCN(c2ccnn3cc(-c4ccc(CNC5COC5)cc4)cc23)CC1 [Compound 760]	< 10	100 to 500
CC(C)(O)C(N)c1ccc(-c2cc3c(N4CCN(C(=O)C5CC5)CC4)ccnn3c2)cc1 (stereo not drawn) [Compound 761]	< 10	< 100
N[C@H](CO)c1ccc(-c2cc3c(N4CCN(C(=O)OC5COC5)CC4)ccnn3c2)cc1 [Compound 762]	< 10	100 to 500
N[C@@H](CO)c1ccc(-c2cc3c(N4CCN(C(=O)OC5COC5)CC4)ccnn3c2)cc1 [Compound 763]	< 10	< 100
CCOC(=O)N1CCN(c2ccnn3cc(-c4ccc(C(N)C(C)(C)O)cc4)cc23)CC1 (stereo not drawn) [Compound 764]	< 10	< 100
NC1(c2ccc(-c3cc4c(N5CCN(C(=O)C6CC6)CC5)ccnn4c3)cc2)CCOCC1 [Compound 768]	< 10	< 100
CC(C)N[C@@H](CO)c1ccc(-c2cc3c(N4CCN(C(=O)C5CC5)CC4)ccnn3c2)cc1 [Compound 770]	< 10	< 100
CC(N)(CO)c1ccc(-c2cc3c(N4CCN(C(=O)OC5COC5)CC4)ccnn3c2)cc1 (stereo not drawn) [Compound 771]	< 10	< 100
O=C(OC1COC1)N1CCN(c2ccnn3cc(-c4ccc(C5CCNCC5)cc4)cc23)CC1 [Compound 773]	< 10	100 to 500
O=C(OC1COC1)N1CCN(c2ccnn3cc(-c4ccc([C@@H]5CCCNC5)cc4)cc23)CC1 [Compound 774]	< 10	< 100
O=C(OC1COC1)N1CCN(c2ccnn3cc(-c4ccc(N5CCNCC5)cc4)cc23)CC1 [Compound 775]	< 10	< 100
O=C(OC1COC1)N1CCN(c2ccnn3cc(-c4ccc(N5CCNCC5)cn4)cc23)CC1 [Compound 776]	< 10	< 100
CCOC(=O)N1CCN(c2ccnn3cc(-c4ccc([C@]5(OC)CCCNC5)cc4)cc23)CC1 [Compound 777]	< 10	< 100
CCOC(=O)N1CCN(c2ccnn3cc(-c4ccc([C@@]5(OC)CCCNC5)cn4)cc23)CC1 [Compound 778]	< 10	< 100
CC(C)(O)C(N)c1ccc(-c2cc3c(N4CCN(C(=O)OC5COC5)CC4)ccnn3c2)cc1 (stereo not drawn) [Compound 779]	< 10	< 100
CCN[C@@H](CO)c1ccc(-c2cc3c(N4CCN(C(=O)OC5COC5)CC4)ccnn3c2)cc1 [Compound 780]	< 10	< 100
CCOC(=O)N1CCN(c2ccnn3cc(-c4ccc([C@@]5(OCC)CCCNC5)cc4)cc23)CC1 [Compound 782]	< 10	< 100
CCOC(=O)N1CCN(c2ccnn3cc(-c4ccc([C@]5(OCC)CCCNC5)cc4)cc23)CC1 [Compound 783]	< 10	< 100
CO[C@]1(c2ccc(-c3cc4c(N5CCN(C(=O)NC(C)C)CC5)ccnn4c3)nc2)CCCNC1 [Compound 784]	< 10	< 100
